# Test system: HBV
# Test: HepAD38 antiviral assay: reduction of viral product accumulation (virion DNA by qPCR, HBsAg/HBeAg by ELISA)
# Type: cell-based
# Conditions: Hepatitis B virus, 120 h; HepAD38 cells; 50% reduction of viral product accumulation vs no drug controls; five days after compound addition; class symbols
# Description: Methods: HepAD38 cells are maintained as previously reported (Ladner et al, Antimicrob. Agents Chemother. 1997, […], 1715). Briefly, cells are passaged upon attaining confluency in DMEM/F12 media in the presence of 10% FBS, Penn/Strep, 250 μg/mL G418, and 1 μg/ml tetracycline. Novel compounds are screened by first washing cells three times with PBS to remove tetracycline, and plating in 96 well plates at 35,000 cells/well. Compounds dissolved in DMSO are then diluted 1:200 into wells containing cells. Five days after compound addition, material is harvested for analysis. For an extended 8 day analysis, cells are plated and treated as described above, but media and compound are refreshed on d2 and d5 post initial treatment.
# On harvest day, virion DNA is obtained by lysing with Sidestep Lysis and Stabilization Buffer and then quantified via quantitative real time PCR. Commercially available ELISA kits are used to quantitate the viral proteins HBsAg (Alpco) or HbeAg (US Biological) by following the manufacturer's recommended protocol after diluting samples to match the linear range of their respective assays. Irrespective of readout, compound concentrations that reduce viral product accumulation in the cell lysates or supernatants by 50% relative to no drug controls (EC50) are reported; EC50 ranges are as follows: A<0.1 μM; B 0.1-1 μM; C>1 μM.
row,Compound,EC50 [nM]
1,CCCCS(=O)(=O)N[C@H]1CC2=C(c3cnn(C(F)F)c3)[C@H](c3ccc(F)cc3Cl)N=C(c3nccs3)N2C1 [Example 23],< 100
2,O=C1N[C@@](/C=N/Oc2ccccc2)(CC2=C(c3ccn(C(F)F)n3)[C@H](c3ccc(F)cc3Cl)N=C(c3nccs3)N2)CO1 [Example 102],100 to 1000
3,C[C@H]1OC[C@@](F)(CC2=C(c3cnn(C(F)F)c3)[C@H](c3ccc(F)cc3Cl)N=C(c3nccs3)N2)CO1 [Example 140],100 to 1000
4,OC[C@]1(F)CC2=C(c3cnn(C(F)F)c3)[C@H](c3ccc(F)cc3Cl)N=C(c3nccs3)N2C1 [Example 148],100 to 1000
5,O=C[C@]1(CC2=C(c3ccn(C(F)F)n3)[C@H](c3ccc(F)cc3Cl)N=C(c3nccs3)N2)COC(=O)N1 [Example 95],< 100
6,COC(=O)OC[C@@]1(N=[N+]=[N-])CC2=C(c3cnn(C(F)F)c3)[C@H](c3ccc(F)cc3Cl)N=C(c3nccs3)N2C1 [Example 55],< 100
7,CC(=O)OC[C@]1(CC2=C(c3ccn(C(F)F)n3)[C@H](c3ccc(F)cc3Cl)N=C(c3nccs3)N2)COC(=O)N1 [Example 97],100 to 1000
8,OCC(O)(CO)CC1=C(c2ccn(C(F)F)n2)[C@H](c2ccc(F)cc2Cl)N=C(c2nccs2)N1 [Example 111],< 100
9,O=S(=O)(N[C@]1(CO)CC2=C(c3ccn(C(F)F)n3)[C@H](c3ccc(F)cc3Cl)N=C(c3nccs3)N2C1)C1CC1 [Example 70],100 to 1000
10,COC(=O)N[C@H]1CC2=C(c3cnn(C(F)F)c3)[C@H](c3ccc(F)cc3Cl)N=C(c3nccs3)N2C1 [Example 14],< 100
11,COCC(F)(COC)CC1=C(c2cnn(C(F)F)c2)[C@H](c2ccc(F)cc2Cl)N=C(c2nccs2)N1 [Example 138],100 to 1000
12,OCC(F)(CO)CC1=C(c2cnn(C(F)F)c2)[C@H](c2ccc(F)cc2Cl)N=C(c2nccs2)N1 [Example 137],100 to 1000
13,OC1CCCCC1CC1=C(c2cnn(C(F)F)c2)[C@H](c2ccc(F)cc2Cl)N=C(c2nccs2)N1 (stereo partly shown) [Example 46],100 to 1000
14,CS(=O)(=O)OC[C@@]1(N=[N+]=[N-])CC2=C(c3cnn(C(F)F)c3)[C@H](c3ccc(F)cc3Cl)N=C(c3nccs3)N2C1 [Example 51],100 to 1000

# Same assay, conditions: Hepatitis B virus, 120 h; HepAD38 cells; 50% reduction of viral product accumulation vs no drug controls; five days after compound addition; given as numeric bound
row,Compound,EC50 [nM]
1,CS(=O)(=O)OC[C@]1(F)CC2=C(c3cnn(C(F)F)c3)[C@H](c3ccc(F)cc3Cl)N=C(c3nccs3)N2C1 [Example 34],> 400
2,COC(=O)CC[C@]1(CC2=C(c3ccn(C(F)F)n3)[C@H](c3ccc(F)cc3Cl)N=C(c3nccs3)N2)COC(=O)N1 [Example 106],> 400
3,CC(=O)NCC1CC2=C(c3cnn(C(F)F)c3)[C@H](c3ccc(F)cc3Cl)N=C(c3nccs3)N2C1 (stereo partly shown) [Example 29],> 100
4,CC(C)(C)OC(=O)NC[C@@H]1CCC(=O)N1CC1=C(c2ccn(C(F)F)n2)[C@H](c2ccc(F)cc2Cl)N=C(c2nccs2)N1 [Example 131],> 400
5,COC(=O)N[C@@]1(C(C)O)CC2=C(c3ccn(C(F)F)n3)[C@H](c3ccc(F)cc3Cl)N=C(c3nccs3)N2C1 (stereo partly shown) [Example 87],> 400
6,O=S(=O)(CC1=C(c2cnn(C(F)F)c2)[C@H](c2ccc(F)cc2Cl)N=C(c2nccs2)N1)C1CCCC1 [Example 145],> 400
7,COC(=O)N[C@]1(C(=O)NCCC(=O)O)CC2=C(c3ccn(C(F)F)n3)[C@H](c3ccc(F)cc3Cl)N=C(c3nccs3)N2C1 [Example 81],> 400
8,COC(=O)[C@@]1(CC2=C(c3ccn(C(F)F)n3)[C@H](c3ccc(F)cc3Cl)N=C(c3nccs3)N2)COC(=O)N1 [Example 89],> 400
9,COC(=O)N[C@]1(C(=O)O)CC2=C(c3ccn(C(F)F)n3)[C@H](c3ccc(F)cc3Cl)N=C(c3nccs3)N2C1 [Example 73],> 400
10,CS(=O)(=O)NC[C@]1(O)CC2=C(c3ccn(C(F)F)n3)[C@H](c3ccc(F)cc3Cl)N=C(c3nccs3)N2C1 [Example 118],> 400
11,[N-]=[N+]=NCC1(F)CC2=C(c3cnn(C(F)F)c3)[C@H](c3ccc(F)cc3Cl)N=C(c3nccs3)N2C1 (stereo partly shown) [Example 41],> 400
12,OC[C@]1(O)CC2=C(c3ccn(C(F)F)n3)[C@H](c3ccc(F)cc3Cl)N=C(c3nccs3)N2C1 [Example 123],> 400
13,COC(=O)NC[C@@H]1CCC(=O)N1CC1=C(c2ccn(C(F)F)n2)[C@H](c2ccc(F)cc2Cl)N=C(c2nccs2)N1 [Example 133],> 400
14,COC(=O)[C@](CO)(CC1=C(c2ccn(C(F)F)n2)[C@H](c2ccc(F)cc2Cl)N=C(c2nccs2)N1)NC(=O)OC(C)(C)C [Example 63],> 400
15,O=C1N[C@@](CC2=C(c3ccn(C(F)F)n3)[C@H](c3ccc(F)cc3Cl)N=C(c3nccs3)N2)(C(=O)O)CO1 [Example 104],> 400
16,CCC[C@H]1OC[C@@](F)(CC2=C(c3cnn(C(F)F)c3)[C@H](c3ccc(F)cc3Cl)N=C(c3nccs3)N2)CO1 [Example 142],> 400

row,Compound,EC50 [nM]
1,O=S(=O)(CC1=C(c2cnn(C(F)F)c2)[C@H](c2ccc(F)cc2Cl)N=C(c2nccs2)N1)N1CCC(O)CC1 [Example 146],> 400
2,CN(C)C(=O)NCC1(C)CC2=C(c3cnn(C(F)F)c3)[C@H](c3ccc(F)cc3Cl)N=C(c3nccs3)N2C1 (stereo partly shown) [Example 42],> 400
3,COC(=O)C(O)(CO)CC1=C(c2ccn(C(F)F)n2)[C@H](c2ccc(F)cc2Cl)N=C(c2nccs2)N1 (stereo partly shown) [Example 112],> 400
4,CC(C)(C)OC(=O)NC[C@H]1CN(CC2=C(c3ccn(C(F)F)n3)[C@H](c3ccc(F)cc3Cl)N=C(c3nccs3)N2)C(=O)O1 [Example 124],> 400
5,CC(=O)NC[C@@]1(O)CC2=C(c3ccn(C(F)F)n3)[C@H](c3ccc(F)cc3Cl)N=C(c3nccs3)N2C1 [Example 116],> 400
6,CS(=O)(=O)NCC1CC2=C(c3cnn(C(F)F)c3)[C@H](c3ccc(F)cc3Cl)N=C(c3nccs3)N2C1 (stereo partly shown) [Example 30],> 100
7,CC(=O)NS(=O)(=O)N[C@H]1CC2=C(c3cnn(C(F)F)c3)[C@H](c3ccc(F)cc3Cl)N=C(c3nccs3)N2C1 [Example 20],> 400
8,[N-]=[N+]=NC[C@]1(N=[N+]=[N-])CC2=C(c3cnn(C(F)F)c3)[C@H](c3ccc(F)cc3Cl)N=C(c3nccs3)N2C1 [Example 52],> 400
9,COC(=O)N[C@]1(COC(=O)NCCC(=O)O)CC2=C(c3ccn(C(F)F)n3)[C@H](c3ccc(F)cc3Cl)N=C(c3nccs3)N2C1 [Example 79],> 400
10,COC(=O)NC[C@H]1CCC(=O)N1CC1=C(c2ccn(C(F)F)n2)[C@H](c2ccc(F)cc2Cl)N=C(c2nccs2)N1 [Example 132],> 400
11,CCOC(=O)NC[C@H]1CCC(=O)N1CC1=C(c2ccn(C(F)F)n2)[C@H](c2ccc(F)cc2Cl)N=C(c2nccs2)N1 [Example 134],> 400
12,[N-]=[N+]=NC[C@@]1(N=[N+]=[N-])CC2=C(c3cnn(C(F)F)c3)[C@H](c3ccc(F)cc3Cl)N=C(c3nccs3)N2C1 [Example 53],> 400
13,CC(O)[C@]1(CC2=C(c3ccn(C(F)F)n3)[C@H](c3ccc(F)cc3Cl)N=C(c3nccs3)N2)COC(=O)N1 (stereo partly shown) [Example 110],> 400
14,CC(C)(C)OC(=O)NC[C@@H]1CN(CC2=C(c3ccn(C(F)F)n3)[C@H](c3ccc(F)cc3Cl)N=C(c3nccs3)N2)C(=O)O1 [Example 127],> 400
15,O=S(=O)(NCC1CC2=C(c3cnn(C(F)F)c3)[C@H](c3ccc(F)cc3Cl)N=C(c3nccs3)N2C1)C1CC1 (stereo partly shown) [Example 33],> 100
16,C=CC[C@]1(COS(C)(=O)=O)CC2=C(c3cnn(C(F)F)c3)[C@H](c3ccc(F)cc3Cl)N=C(c3nccs3)N2C1 [Example 39],> 400

# Source: US10723733B2, “Hepatitis B antiviral agents” (Enanta Pharmaceuticals, Inc., priority 2017, dated 2020)
